# Laboratory results as given in patent US20250177303A1, “A DRUG NANOCARRIER SYSTEM TO DELIVER A COMBINATION OF TLR AGONISTS AND/OR A LIPOXIN PLUS IMMUNOGENIC CELL DEATH INDUCING CHEMOTHERAPEUTIC AGENTS FOR CANCER IMMUNOTHERAPY” (The Regents of the University of California, priority 2022, published 2025).
# “Also recorded” adds a separate entry of the source.
# Assays:
# TGF-β activated hPSCs = experiment: IL-6 secretion from TGF-β activated human pancreatic stellate cells (ELISA); assay type: cell-based; conditions: 1-100 nM LXA4, 48 h, TGF-β 20 ng/mL
# Procedure: HPaSteCs were seeded at 2500 cells/well in a 96-well plate and activated with TGF-p (20 ng/mL) overnight. The next day, hPSCs were treated with 1-100 nM of LXA4 in free and liposomal form. After 48 h of incubation, the supernatant was collected and analysed for IL-6 secretion with ELISA. […] A possible explanation is provided by the schematic in FIG. 11, panel A.
# KPC cells = experiment: In vitro killing of KPC cells, CCK-8 assay; assay type: cell-based, murine; conditions: 50-500 μM IRIN, 48 h
# Procedure: 20 μL of CCK-8 solution was added to each well and the plates were incubated for an additional 1-2 h in an incubator. The absorbance of each well was assessed at 450 nm in a microplate reader. Cytotoxicity (% dead cells) was calculated using the formula: (ODsample−ODblank)/(ODcontrol−ODblank)×100.
# subcutaneous KPC tumor [1] = experiment: IHC of T lymphocytes and perforin in KPC tumors (lipo-LXA4-IRIN study); assay type: in vivo, B6129SF1/J mice; conditions: normalized over no treatment control
# orthotopic KPC-luc tumor = experiment: Orthotopic KPC-luc tumor model, efficacy (IVIS bioluminescence, tumor weight, metastasis); assay type: in vivo, B6129SF1/J mice
# Procedure: FIG. 8, panel A, depicts the experimental outline of the study conducted by orthotopic implantation KPC-luc tumor cells in the pancreatic tail of syngeneic mice. In brief, 50 μL of PBS/Matrigel (6:4 v/v), containing 0.8×10^6 KPC-luc cells was orthotopically injected into the tail of the pancreas of female B6129SF1/J mice 8 days before the onset of treatment. […] FIG. 8, panel C depicts the average quantitative tumor bioluminescence in each group at day 21, as calculated by IVIS software. **p<0.01.
# Mice were sacrificed on day 21. FIG. 8, panel D, depicts the IVIS imaging performed on the ex vivo explanted tumor tissues and potential metastatic organs on day 21. […] FIG. 8, panel G depicts animal body weights over a time period of 21 days.
# 50 μL of a DMEM/Matrigel (6:4 v/v) suspension, containing 8×10^5 KPC-luc cells, was injected into the tail of the pancreas in female B6129SF1/J mice by a survival surgery procedure. […] The dose equivalents of 3M-052 and IRIN were 2 mg/kg and 40 mg/kg per dose, respectively. Animal weight was monitored every 2 days.
# To perform the bioluminescence imaging of the luciferase-expressing tumors, mice were injected intraperitoneal with 50 mg/kg D-Luciferin on day 7, 15, 18, and 21. Ex vivo IVIS images of tumors and major organs, collected from sacrificed animals, were obtained on day 21. In addition, we also obtained photographs and weighed the harvested tumors, which were subsequently fixed in 10% formalin for the performance of IHC staining.
# subcutaneous KPC tumor [2] = experiment: Subcutaneous KPC tumor model, tumor growth (3M-052/IRIN carriers); conditions: for Inhibition of tumor growth compared to saline: day 20, p<0.001
# Procedure: The schematic in FIG. 6, panel A depicts the treatment outline for conducting the subcutaneous KPC tumor experiment. […] Tumor-bearing mice were randomly divided into 5 groups (n=6 or 7), which received IV administration of the different treatment modalities, every 3-4 days on 4 occasions. […] IRIN was administered at 40 mg/kg while the 3M-052 dose was delivered at 2 mg/kg. FIG. 6, panel B, depicts the average subcutaneous KPC tumor growth kinetics, as determined by tumor volume. Tumor size was measured every 2 days, and tumor volume was calculated by the formula: tumor volume (mm^3)=(length in mm)×(width in mm)^2/2.
# KPC cells were subcutaneously injected into the right flank of female B6129SF1/J mice for in vivo experimentation. […] Subcutaneous tumor sizes were monitored every 2 days.
# [3] = Subcutaneous KPC tumor model, body weight and blood parameters (safety); assay type: in vivo, B6129SF1/J mice; conditions: blood on day 21, 4 IV injections, 3M-052 2 mg/kg, IRIN 40 mg/kg
# Procedure: Table 10. A subcutaneous KPC tumor model was established in B6129SF1/J mice. […] Blood was collected from the sacrificed animals on day 21. The biochemical parameters were assayed by UCLA Division of Laboratory Animal Medicine (DLAM) diagnostic laboratory services. These parameters include white blood cell (WBC), alkaline phosphatase (ALP), aspartate aminotransferase (AST), alanine aminotransferase (ALT), blood urea nitrogen (BUN), creatinine, calcium, and phosphorus.
# A subcutaneous KPC tumor model was established in immunocompetent B6129SF1/J mice, using protocols approved by the UCLA Animal Research Committee. Briefly, 100 μL of a DMEM/Matrigel (1:1 v/v) suspension, containing 1×10^6 KPC cells, was subcutaneously injected into the right flank of female B6129SF1/J mice, 8-10 weeks old. […] Injections were given every 3-4 days, using the dosing schedule that delivers the equivalent of 2 mg/kg and 40 mg/kg, respectively, for 3M-052 and IRIN. Subcutaneous KPC tumor size and animal weight were monitored every 2 days. The tumor size was calculated according to the formula: (Width^2×Length)/2.
# We also collected blood for separating serum after centrifugation at 3500 rpm for 20 min. The following biochemical parameters were assayed by UCLA Division of Laboratory Animal Medicine (DLAM) diagnostic laboratory services: white blood cell (WBC), alkaline phosphatase (ALP), aspartate aminotransferase (AST), alanine aminotransferase (ALT), blood urea nitrogen (BUN), creatinine, calcium, and phosphorus.
# [4] = cited from earlier work
# [5] = Pharmacokinetics of 3M-052 and IRIN in plasma (HPLC); assay type: in vivo, healthy B6129SF1/J mice; conditions: single IV, 3M-052 2 mg/kg, IRIN 40 mg/kg
# Procedure: Free 3M-052 and IRIN were extracted by methanol and measured by HPLC.
# The harvested tumor and organ samples, collected in the drug biodistribution experiment, were weighed and homogenized. The collected plasma, tumor, and organ homogenates were extracted in methanol, using 1:5, 1:4, and 1:3 v/v dilutions, respectively. The extracts were vortexed for 20 s and centrifuged at 13000 rpm for 10 min, following which the drug-containing supernatants were filtrated through 0.22 μm filters to perform HPLC analysis. The HPLC system is operated by a Knauer Smartline Pneumatic Pump, C18 column, K-2600 spectrophotometer, and Gina data acquisition software. The mobile phase consisted of mobile phase A (0.01% trifluoroacetic acid in water) and mobile phase B (0.01% trifluoroacetic acid in methanol) as 70% A and 30% B (v/v). A 20 μL of the sample was injected to measure the 3M-052 and IRIN absorptions at 320 and 360 nm. The 3M-052 and IRIN standard curves were generated over the maximal concentrations of 40 and 100 μg/mL respectively.
# [6] = tested on: LN-resident dendritic cells (LN-DCs); experiment: Subcutaneous KPC tumor model, flow cytometry of inguinal lymph node dendritic cells; assay type: in vivo, B6129SF1/J mice; conditions: inguinal lymph nodes
# Text: Subcutaneous tumor implantation in the rear animal flank allows lymphatic drainage to the regional inguinal lymph nodes (LNs), which were harvested to assess therapeutic impact on LN-resident dendritic cells (LN-DCs). This reasoning is premised on the possibility that LN participation in the cancer immunity cycle may be able to strengthen the ICD response by increasing recruitment of newly-activated cytotoxic T-cells back to the principal tumor site. Following inguinal LN harvesting and cellular release, initial flow cytometry gating selected singlet live cells (FIG. 26). Further gating on the CD11c^+/CD45^+ DC subset was used to quantify CD80 and CD86 expression, representative of the surface receptors on an activated DC subset, participating in T-cell activation. […] We also obtained evidence that the response boosting involves LNDC participation as a key component of the cancer immunity cycle.
# Following animal sacrifice, photographs were obtained of the harvested tumors, which were subsequently fixed in 10% formalin for IHC staining by the UCLA Translational Pathology Core Laboratory. Image processing was performed using Aperio ImageScope software (Leica). IHC analysis was performed to assess tumor staining intensity for CD8 and FoxP3. Additionally, we assessed the immune response in the draining inguinal lymph nodes (LNs) harvested from the sacrificed animals. […]
# [7] = tested on: murine bone marrow-derived dendritic cells (BMDCs); experiment: BMDC activation (flow cytometry, IL-12p40 and TNF-α ELISA); assay type: cell-based; conditions: 10 μM, 21 h
# Procedure: (§1) Having confirmed effective intracellular delivery of TLR7 activation, the next task was to determine the effect of the 3M-silicasome in the ex vivo activation of macrophages and DCs. These assays were performed in RAW264.7 macrophages and murine bone marrow-derived dendritic cells (BMDCs). RAW264.7 and BMDCs were treated with 10 μM each of R848 (positive control), free 3M-052, or the 3M-silicasome for 21 hours before assessing CD80 expression (FIG. 16, panels C and E). […] We also quantified the release of two key pro-inflammatory cytokines, IL-12p40 and TNF-α by ELISA in the same cell types, using similar stimuli.
# Bone marrow-derived dendritic cells (BMDCs) were prepared according to our established procedure, with a slight modification.^[42] Bone marrow cells flushed from the femur and tibia of B6/129 mice were collected and red blood cells were lysed by incubating in ACK Lysing Buffer. […]
# (§2) For flow cytometry analysis of surface markers, cells were washed with cell staining buffer, before staining RAW264.7 cells with anti-CD80 or BMDCs with FITC-conjugated anti-CD11c and anti-CD80 on ice, according to the manufacturer's instructions. The assessment of the differentiation and activation markers were evaluated by flow cytometry (LSRFortessa; BD Biosciences), analyzed by FlowJo software.
# RAW264.7 macrophages = experiment: RAW264.7 macrophage activation (CD80 flow cytometry, IL-12p40 and TNF-α ELISA); assay type: cell-based, murine; conditions: RAW264.7, 10 μM, 21 h
# Procedure: as §1
# RAW264.7 cells (1×10^5 cells/well) were cultured in 48-well plates for 24 h, before the addition of PBS or 10 μM concentrations of R848, free 3M-052 or the 3M-silicasome for a further 21 h. Immature BMDCs (5×10^5 cells/well) were cultured in 24-well plates, receiving the same dose of R848, free 3M-052, and 3M-silicasome for 21 h. […]
# as §2
smiles,measurement,setting,value
"CCCCC[C@H](O)/C=C/C=C\C=C\C=C\[C@@H](O)[C@@H](O)CCCC(=O)O [LXA4, lipoxin A4]",IL-6 release,TGF-β activated hPSCs,significantly inhibited IL-6 release in a concentration-dependent manner
"CCc1c2c(nc3ccc(OC(=O)N4CCC(N5CCCCC5)CC4)cc13)-c1cc3c(c(=O)n1C2)COC(=O)[C@]3(O)CC [free IRIN, Irinotecan]",Cytotoxicity to KPC cells,KPC cells,"dose-dependent cytotoxicity, with a steeper decline in viability"
same,Perforin signal,subcutaneous KPC tumor [1],increase in the perforin levels compared to the no-treatment control
same,Tumor bioluminescence intensity,"orthotopic KPC-luc tumor; day 21, IV every 3 days x4, compared to saline or free IRIN",little effect on orthotopic tumors
same,Metastatic spread to surrounding organs,"orthotopic KPC-luc tumor; ex vivo IVIS imaging, day 21",same metastatic burden; also recorded: evidence for splenic involvement
same,Inhibition of tumor growth compared to saline,subcutaneous KPC tumor [2],statistically significant compared to the saline control
same,ALP,[3],91.0 ± 1.7 U/L
same,AST,[3],66.3 ± 22.2 U/L
same,BUN,[3],17.0 ± 1.0 mg/dL
same,Calcium,[3],8.9 ± 0.1 mg/dL
same,Creatinine,[3],0.0 ± 0.1 mg/dL
same,Phosphorous,[3],7.4 ± 0.5 mg/dL
same,WBC,[3],3.9 ± 0.5 10^3/μL
CC(=O)O[C@@]12CO[C@@H]1C[C@H](O)[C@@]1(C)C(=O)[C@H](O)C3=C(C)[C@@H](OC(=O)[C@H](O)[C@@H](NC(=O)OC(C)(C)C)c4ccccc4)C[C@@](O)([C@@H](OC(=O)c4ccccc4)[C@H]21)C3(C)C [docetaxel],Ethanol solubility,[4],~100 mg/mL
O=C1c2c(O)ccc(O)c2C(=O)c2c(NCCNCCO)ccc(NCCNCCO)c21 [mitoxantrone],Water solubility,[4]; drugbank,89 mg/mL
"CCCCCCCCCCCCCCCCCC(=O)NCCCCOn1c(CCCC)nc2c(N)nc3ccccc3c21 [free 3M-052, Telratolimod]",Clearance from the blood circulation,[5],rapidly cleared
same,CD80 and CD86 expression in CD11c+/CD45+ population,[6]; 4 rounds of treatment,up-regulated
same,Percentage of CD45+/CD11c+ LN-DCs,"[6]; day 21, compared to saline and free IRIN",increase in the percentage of CD45^+/CD11c^+ LN-DCs
same,CD80 cell surface expression,[7],significant increase in cell surface expression of a maturation marker
same,IL-12p40 and TNF-α release,[7]; ELISA,higher responses
same,Effect on tumor volume growth,"subcutaneous KPC tumor [2]; IV every 3-4 days x4, 3M-052 2 mg/kg, IRIN 40 mg/kg",modest effects
same,Inhibition of tumor growth compared to saline,subcutaneous KPC tumor [2],statistically significant compared to the saline control
same,Inhibition of tumor growth compared between treatments,"subcutaneous KPC tumor [2]; tumor volume, comparison among treatment groups",significantly reduced compared to treatment with single-drug or dual-drug silicasomes
same,ALP,[3],64.3 ± 7.6 U/L
same,ALT,[3],32.3 ± 11.9 U/L
same,AST,[3],95.0 ± 14.0 U/L
same,BUN,[3],16.0 ± 2.0 mg/dL
same,Calcium,[3],8.7 ± 0.2 mg/dL
same,Creatinine,[3],0.0 ± 0.0 mg/dL
same,Phosphorous,[3],7.2 ± 1.3 mg/dL
same,WBC,[3],3.5 ± 0.1 10^3/μL
same,CD80 cell surface expression,RAW264.7 macrophages,significant increase in cell surface expression of a maturation marker
same,IL-12p40 and TNF-α release,RAW264.7 macrophages; ELISA,higher responses
